Test results from ChEMBL document CHEMBL1201862, “PubChem BioAssay data set” (2004).
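Method: 48-hour compound exposure of cells in 96-well plates, five concentrations, linear interpolation of endpoints. Here, GI50 denotes the concentration required for 50% inhibition of growth.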 Active and inactive are the calls of the source. Cut-off read from the data, not from the text of the source: active = GI50 up to about 1.1 µM and inactive = higher.

Tests used:
Test in all cases: NCI anticancer screen, dose series, 48 h
786-0 = tested on: 786-0
A498 = tested on: A498
A549 = tested on: A549
ACHN = tested on: ACHN
CAKI-1 = tested on: CAKI-1
CCRF-CEM = tested on: CCRF-CEM
COLO 205 = tested on: COLO 205
DLD-1 = tested on: DLD-1
DMS-114 = tested on: DMS-114
DMS-273 = tested on: DMS-273
EKVX = tested on: EKVX
HCC 2998 = tested on: HCC 2998
HCT-116 = tested on: HCT-116
HCT-15 = tested on: HCT-15
HL-60 = tested on: HL-60
HOP-18 = tested on: HOP-18
HOP-62 = tested on: HOP-62
HOP-92 = tested on: HOP-92
HT-29 = tested on: HT-29
IGROV-1 = tested on: IGROV-1
K562 = tested on: K562
KM-20L2 = tested on: KM-20L2
KM12 = tested on: KM12
LOX IMVI = tested on: LOX IMVI
LXFL 529 = tested on: LXFL 529
M14 = tested on: M14
M19-MEL = tested on: M19-MEL
MOLT-4 = tested on: MOLT-4
Malme-3M = tested on: Malme-3M
NCI-H226 = tested on: NCI-H226
NCI-H23 = tested on: NCI-H23
NCI-H460 = tested on: NCI-H460
NCI-H522 = tested on: NCI-H522
OVCAR-3 = tested on: OVCAR-3
OVCAR-4 = tested on: OVCAR-4
OVCAR-5 = tested on: OVCAR-5
OVCAR-8 = tested on: OVCAR-8
RPMI-8226 = tested on: RPMI-8226
RXF 631 = tested on: RXF 631
SF-268 = tested on: SF-268
SF-295 = tested on: SF-295
SF-539 = tested on: SF-539
SK-MEL-28 = tested on: SK-MEL-28
SK-MEL-2 = tested on: SK-MEL-2
SK-MEL-5 = tested on: SK-MEL-5
SK-OV-3 = tested on: SK-OV-3
SN12C = tested on: SN12C
SNB-19 = tested on: SNB-19
SNB-75 = tested on: SNB-75
SW-620 = tested on: SW-620
TK-10 = tested on: TK-10
U-251 = tested on: U-251
UACC-62 = tested on: UACC-62
BT-549 = tested on: BT-549
DU-145 = tested on: DU-145
Hs-578T = tested on: Hs-578T
MCF7 = tested on: MCF7
MDA-MB-231 = tested on: MDA-MB-231
MDA-MB-435 = tested on: MDA-MB-435
MDA-N = tested on: MDA-N
NCI/ADR-RES = tested on: NCI/ADR-RES
PC-3 = tested on: PC-3
RXF 393 = tested on: RXF 393
SNB-78 = tested on: SNB-78
SR = tested on: SR
T47D = tested on: T47D
UACC-257 = tested on: UACC-257
UO-31 = tested on: UO-31

## COC(=O)c1ccc(C=C(C#N)C#N)cc1
786-0
  GI50: 16.9 µM (inactive)
A498
  GI50: > 100 µM (inactive)
A549
  GI50: > 100 µM (inactive)
ACHN
  GI50: 25 µM (inactive)
CAKI-1
  GI50: 30.7 µM (inactive)
CCRF-CEM
  GI50: 21.5 µM (inactive)
COLO 205
  GI50: 27.7 µM (inactive)
DLD-1
  GI50: 22.2 µM (inactive)
DMS-114
  GI50: 19.2 µM (inactive)
DMS-273
  GI50: 17.4 µM (inactive)
EKVX
  GI50: 33.8 µM (inactive)
HCC 2998
  GI50: 15.6 µM (inactive)
HCT-116
  GI50: 17.1 µM (inactive)
HCT-15
  GI50: 35 µM
HL-60
  GI50: 28.4 µM (inactive)
HOP-18
  GI50: 36.1 µM (inactive)
HOP-62
  GI50: 27 µM (inactive)
HOP-92
  GI50: 14.7 µM (inactive)
HT-29
  GI50: 33.4 µM (inactive)
IGROV-1
  GI50: 28.4 µM (inactive)
K562
  GI50: 23.2 µM (inactive)
KM-20L2
  GI50: 30.6 µM (inactive)
KM12
  GI50: 31.6 µM (inactive)
LOX IMVI
  GI50: 21 µM (inactive)
LXFL 529
  GI50: 18.3 µM (inactive)
M14
  GI50: 16.5 µM (inactive)
M19-MEL
  GI50: 25.2 µM (inactive)
MOLT-4
  GI50: 21.7 µM (inactive)
Malme-3M
  GI50: 20.7 µM (inactive)
NCI-H226
  GI50: 24 µM (inactive)
NCI-H23
  GI50: 19.4 µM (inactive)
NCI-H460
  GI50: 83.6 µM (inactive)
NCI-H522
  GI50: 13.7 µM (inactive)
OVCAR-3
  GI50: 29.4 µM (inactive)
OVCAR-4
  GI50: 20.6 µM (inactive)
OVCAR-5
  GI50: > 100 µM (inactive)
OVCAR-8
  GI50: 21.9 µM (inactive)
RPMI-8226
  GI50: 22.5 µM (inactive)
RXF 631
  GI50: 28.2 µM (inactive)
SF-268
  GI50: 23 µM (inactive)
SF-295
  GI50: 32.4 µM (inactive)
SF-539
  GI50: 19.5 µM (inactive)
SK-MEL-28
  GI50: 19.3 µM (inactive)
SK-MEL-2
  GI50: 18.4 µM (inactive)
SK-MEL-5
  GI50: 17.9 µM (inactive)
SK-OV-3
  GI50: > 100 µM (inactive)
SN12C
  GI50: 19.3 µM (inactive)
SNB-19
  GI50: 38.5 µM (inactive)
SNB-75
  GI50: 27.4 µM (inactive)
SW-620
  GI50: 21.3 µM (inactive)
TK-10
  GI50: 27.9 µM (inactive)
U-251
  GI50: 24.4 µM (inactive)
UACC-62
  GI50: 20.8 µM (inactive)

## CN(C)C(=S)SN(C)C(=O)Nc1ccccc1
786-0
  GI50: 6.62 µM (inactive)
A498
  GI50: 3.9 µM (inactive)
A549
  GI50: 23.4 µM (inactive)
ACHN
  GI50: 47.2 µM (inactive)
BT-549
  GI50: > 41.2 µM (inactive)
CAKI-1
  GI50: 26.1 µM (inactive)
CCRF-CEM
  GI50: 0.993 µM (active)
COLO 205
  GI50: 4.48 µM (inactive)
DLD-1
  GI50: 31.1 µM (inactive)
DMS-114
  GI50: 2.4 µM (inactive)
DMS-273
  GI50: 18.2 µM (inactive)
DU-145
  GI50: 63 µM (inactive)
EKVX
  GI50: > 86.9 µM (inactive)
HCC 2998
  GI50: 17.3 µM (inactive)
HCT-116
  GI50: 8.91 µM (inactive)
HCT-15
  GI50: 22.6 µM
HL-60
  GI50: 2.86 µM (inactive)
HOP-62
  GI50: > 65.9 µM (inactive)
HOP-92
  GI50: 3.5 µM (inactive)
HT-29
  GI50: 1.69 µM (inactive)
Hs-578T
  GI50: > 100 µM (inactive)
IGROV-1
  GI50: 26 µM (inactive)
K562
  GI50: 0.998 µM (active)
KM-20L2
  GI50: > 49.2 µM (inactive)
KM12
  GI50: 12.1 µM (inactive)
LOX IMVI
  GI50: 8.26 µM (inactive)
LXFL 529
  GI50: 0.391 µM (active)
M14
  GI50: 7.46 µM (inactive)
M19-MEL
  GI50: 2.21 µM (inactive)
MCF7
  GI50: 2.67 µM (inactive)
MDA-MB-231
  GI50: 38.9 µM (inactive)
MDA-MB-435
  GI50: 19.7 µM (inactive)
MDA-N
  GI50: 9.53 µM (inactive)
MOLT-4
  GI50: 2.76 µM (inactive)
Malme-3M
  GI50: 16.7 µM (inactive)
NCI-H226
  GI50: 45.8 µM (inactive)
NCI-H23
  GI50: 7.4 µM (inactive)
NCI-H460
  GI50: 1.82 µM (inactive)
NCI-H522
  GI50: 0.128 µM (active)
NCI/ADR-RES
  GI50: 3.2 µM (inactive)
OVCAR-3
  GI50: 0.618 µM (active)
OVCAR-4
  GI50: 5.06 µM (inactive)
OVCAR-5
  GI50: 12.2 µM (inactive)
OVCAR-8
  GI50: 35.3 µM (inactive)
PC-3
  GI50: 7.43 µM (inactive)
RPMI-8226
  GI50: 15.7 µM (inactive)
RXF 393
  GI50: 1.18 µM (inactive)
RXF 631
  GI50: > 51.9 µM (inactive)
SF-268
  GI50: 38.4 µM (inactive)
SF-295
  GI50: 49.3 µM (inactive)
SF-539
  GI50: 34.1 µM (inactive)
SK-MEL-28
  GI50: 12.2 µM (inactive)
SK-MEL-2
  GI50: 39.4 µM (inactive)
SK-MEL-5
  GI50: 3.28 µM (inactive)
SK-OV-3
  GI50: > 87.7 µM (inactive)
SN12C
  GI50: 41.2 µM (inactive)
SNB-19
  GI50: 80.2 µM (inactive)
SNB-75
  GI50: 28.6 µM (inactive)
SNB-78
  GI50: 39.9 µM (inactive)
SR
  GI50: 5.43 µM (inactive)
SW-620
  GI50: 7.28 µM (inactive)
T47D
  GI50: 1.26 µM (inactive)
TK-10
  GI50: > 96.2 µM (inactive)
U-251
  GI50: 18 µM (inactive)
UACC-257
  GI50: 46.1 µM (inactive)
UACC-62
  GI50: 3.62 µM (inactive)
UO-31
  GI50: 57.7 µM (inactive)
